Source: ChEMBL document CHEMBL1136995, “2,6-Diphenylthiazolo[3,2-b][1,2,4]triazoles as telomeric G-quadruplex stabilizers” (Bioorg Med Chem Lett, 2009)
Active and inactive are the calls of the source. The rule behind the calls is not given here.

How the values were obtained:
Assay type in all cases: nucleic-acid assay
Nucleic Acid [1] = experiment: Binding affinity to G-quadruplex F21T DNA assessed as change in melting temperature at 3 uM under K+ ionic conditions by FRET assay
Nucleic Acid [2] = experiment: Binding affinity to G-quadruplex F21T DNA assessed as change in melting temperature at 3 uM under Na+ ionic conditions by FRET assay
Nucleic Acid [3] = experiment: Binding affinity to G-quadruplex F21T DNA assessed as quadruplex stabilization at 3 uM by FRET assay in presence of duplex ds26 oligonucleotide
Nucleic Acid [4] = experiment: Binding affinity to G-quadruplex F21T DNA assessed as change in melting temperature at 0.3 uM under K+ ionic conditions by FRET assay
Nucleic Acid [5] = experiment: Binding affinity to G-quadruplex F21T DNA assessed as change in melting temperature at 0.1 uM under K+ ionic conditions by FRET assay
Nucleic Acid [6] = experiment: Binding affinity to G-quadruplex F21T DNA assessed as change in melting temperature at 0.6 uM under K+ ionic conditions by FRET assay
Nucleic Acid [7] = experiment: Binding affinity to G-quadruplex F21T DNA assessed as change in melting temperature at 0.8 uM under K+ ionic conditions by FRET assay

Compound	ΔTm (Nucleic Acid [1])	ΔTm (Nucleic Acid [2])	Activity (Nucleic Acid [3])	further results
O=C(NCCN1CCCCC1)c1ccc(-c2csc3nc(-c4ccc(OCc5ccccc5)cc4)nn23)cc1	2.7 °C	< 1 °C		
CCOC(=O)c1ccc(-c2csc3nc(-c4ccc(OCc5ccccc5)cc4)nn23)cc1	< 1 °C	< 1 °C		
Oc1ccc(-c2nc3scc(-c4ccc(O)cc4)n3n2)cc1	< 1 °C	< 1 °C		
O=C(NCCN1CCCCC1)c1ccc(-c2csc3nc(-c4ccc(OCCN5CCCCC5)cc4)nn23)cc1	11.2 °C	5 °C	Active	
O=C(NCCN1CCCCC1)c1ccc(-c2csc3nc(-c4ccc(OCCN5CCCC5)cc4)nn23)cc1	14.6 °C	5.9 °C	inactive	
c1ccc(COc2ccc(-c3nc4scc(-c5ccc(OCc6ccccc6)cc5)n4n3)cc2)cc1	< 1 °C	< 1 °C		
NC(=O)c1cccc(C(N)=O)n1				ΔTm (Nucleic Acid [4]): 15 °C; ΔTm (Nucleic Acid [5]): 10 °C
c1cc(-c2nc3scc(-c4ccc(OCCN5CCCCC5)cc4)n3n2)ccc1OCCN1CCCCC1	8.7 °C	2.1 °C	Active	
O=C(NCCN1CCCCC1)c1ccc(-c2csc3nc(-c4ccc(O)cc4)nn23)cc1	1.8 °C	< 1 °C		
Cc1oc2nc1-c1nc(co1)-c1nc(co1)-c1nc(co1)-c1nc(co1)-c1nc(co1)C1=NC(CS1)c1nc-2c(C)o1 (stereo not drawn)				ΔTm (Nucleic Acid [6]): 10 °C; ΔTm (Nucleic Acid [7]): 15 °C
